A value given as a limit tells only on which side of the number the result lay.

For orientation: EC50 means the midpoint of the concentration-response curve. Higher therefore signals weaker potency.

Assay [1] is described as follows: Compound was evaluated for agonistic activity against mGluR2 alpha metabotropic receptor subtype in rat cortical slice model.
A short description of assay [2]: Compound was evaluated for agonistic activity against mGluR4a alpha metabotropic receptor subtype in rat cortical slice model.

Turning to `CNC(C(=O)O)c1cc(=O)[nH]o1` (stereo unspecified) [(3-Hydroxy-isoxazol-5-yl)-methylamino-acetic acid], the EC50 in assay [1] and in assay [2] was more than 1000 µM each time.

With `O=C(O)C(NCc1ccccc1)c1cc(=O)[nH]o1` (stereo unspecified) [Benzylamino-(3-hydroxy-isoxazol-5-yl)-acetic acid], the concentration for a half-maximal effect (EC50) in assay [1] and in assay [2] was more than 1000 µM each time.

As for `CCNC(C(=O)O)c1cc(=O)[nH]o1` (stereo unspecified) [Ethylamino-(3-hydroxy-isoxazol-5-yl)-acetic acid], the EC50 in assay [1] and in assay [2] was more than 1000 µM throughout.

Source of the values: BindingDB's records for doi:10.1016/s0960-894x(98)00264-9 (Royal Danish School of Pharmacy, 1999).
